Data as given in patent publication EP4772513A1, “PI3K-ALPHA INHIBITOR AND USE THEREOF” (TYK Medicines (Zhengzhou), Inc., priority 2023, dated 2025).

Columns and labels:
[1] = tested on: Human breast cancer cells SK-BR-3 (WT); assay: Cell proliferation inhibition assay (CTG), SK-BR-3 (WT); assay type: cell-based; settings: Homo sapiens, 72 h, SK-BR-3 (WT) cells, 3 days incubation, CTG readout
Description: (§1) Cell Proliferation Inhibition Assay
(§2) 1. Experimental Materials
(§3) II. Experimental Protocol
(§4) • a) Cell suspension was prepared; • b) The medium was removed from the culture flask; • c) The cells were rinsed once with PBS; • d) Trypsin was added for digestion, and the cells were centrifuged and collected; • e) The cells were resuspended in medium, counted and adjusted to an appropriate concentration; • f) 100 µL of cell suspension was added to each well of a 96-well plate. One plate was used for each cell line, which was incubated overnight in a 37 °C, 5% CO2 incubator.
(§5) 2. Treatment of Compounds
(§6) • a) Serial dilutions of the test compounds were prepared: The compound was prepared as a 10 mM stock solution. 18 µL of the stock solution was dissolved in 982 µL of the culture medium containing DMSO, followed by 4-fold serial dilutions in culture medium containing 0.5% DMSO to give 9 concentrations. The concentrations of the diluted compound were as follows: 180000 nM, 45000 nM, 11250 nM, 2812.5 nM, 703.13 nM, 175.78 nM, 43.95 nM, 10.99 nM, and 2.75 nM. • b) After thorough mixing, 20 µL of each compound solution was added to the cell plate containing 100 µL of cells per well. Each concentration was tested in triplicate. Final concentrations of the compound were as follows: 30000 nM, 7500 nM, 1875 nM, 468.75 nM, 117.188 nM, 29.30 nM, 7.32 nM, 1.83 nM, and 0.46 nM. • c) The cells were transferred into the incubator and incubated for 3 days.
(§7) The cell plate was removed, 25 µL of CTG reagent was added to each well of the 96-well plate, the mixture was shook on a plate shaker at room temperature for 10 minutes, and the plate was read.
(§8) The cell survival rate was calculated using the following formula (% Cell Survival): % Cell Survival = 100% × (OD_Sample−OD_LCave)/(OD_HC−OD_LCave) [formula] • OD_HC: Reading of the 0.1‰ DMSO control group • OD_Sample: Reading of cells treated with compound • OD_LCave: Reading of blank medium
(§9) Analyzed by Prism: Dose-response-Inhibition - Log (inhibitor) vs response (three parameters for the best fit).

[2] = tested on: Human breast cancer cells T47D (H1047R); assay: Cell proliferation inhibition assay (CTG), T47D (H1047R); assay type: cell-based; settings: Homo sapiens, 72 h, 3 days incubation, CTG readout
Description: as §1, §2, §3, §4, §5, §6, §7, §8, §9

| IC50 [1] [nM] | IC50 [2] [nM] | SMILES |
| --- | --- | --- |
| > 5000 | ≤ 500 | Cc1cc([C@@H](C)Nc2ccccc2C(=O)O)c2oc3c(c(=O)c2c1)CCN(c1ncccn1)C3 [Compound C175] |
| > 5000 | ≤ 500 | Cc1cc([C@@H](C)Nc2ccccc2C(=O)O)c2oc3c(c(=O)c2c1)CCN(Cc1ccccc1)C3 [Compound C176] |
| > 5000 | ≤ 500 | [2H]C([2H])([2H])n1ncc(C)c1S(=O)(=O)N1CCc2c(oc3c([C@@H](C)Nc4ccccc4C(=O)O)cc(C)cc3c2=O)C1 [Compound C177] |
| > 5000 | ≤ 500 | CC[C@H](C)N1CCc2c(oc3c([C@@H](C)Nc4ccccc4C(=O)O)cc(C)cc3c2=O)C1 [Compound C178] |
| > 5000 | ≤ 500 | CC[C@@H](C)N1CCc2c(oc3c([C@@H](C)Nc4ccccc4C(=O)O)cc(C)cc3c2=O)C1 [Compound C179] |
| > 5000 | ≤ 500 | Cc1cc([C@@H](C)Nc2ccccc2C(=O)O)c2oc3c(c(=O)c2c1)CCN(c1ccccc1)C3 [Compound C180] |
| > 5000 | ≤ 500 | Cc1cc([C@@H](C)Nc2ccccc2C(=O)O)c2oc3c(c(=O)c2c1)CCN(S(=O)(=O)Cc1ccccc1)C3 [Compound C181] |
| > 5000 | ≤ 500 | Cc1cnn(C)c1S(=O)(=O)N1CCc2c(nc3c([C@@H](C)Nc4ccccc4C(=O)O)cc(F)cn3c2=O)C1 [Compound C182] |
| > 5000 | ≤ 500 | Cc1cc([C@@H](C)Nc2ccccc2C(=O)O)c2nc3c(c(=O)n2c1)CCN(S(=O)(=O)c1c(C)cnn1C)C3 [Compound C189] |
| > 5000 | 500 to 2000 | C[C@@H](Nc1ccccc1C(=O)O)c1cc(F)cn2c(=O)c3c(nc12)CN(Cc1ccccc1)CC3 [Compound C190] |
| > 5000 | ≤ 500 | Cc1cc([C@@H](C)Nc2ccccc2C(=O)O)c2nc3c(c(=O)n2c1)CCN(S(=O)(=O)c1ccccc1)C3 [Compound C191] |
| > 5000 | ≤ 500 | C[C@@H](Nc1ccccc1C(=O)O)c1cc(F)cn2c(=O)c3c(nc12)CN(S(=O)(=O)c1ccccc1)CC3 [Compound C192] |
| > 5000 | ≤ 500 | CC(C)S(=O)(=O)N1CCc2c(nc3c([C@@H](C)Nc4ccccc4C(=O)O)cc(F)cn3c2=O)C1 [Compound C193] |
| > 5000 | 500 to 2000 | C[C@@H](Nc1ccccc1C(=O)O)c1cc(F)cn2c(=O)c3c(nc12)CN(c1ccccc1)CC3 [Compound C208] |
